Measured values: patent US20050197350A1, “Novel quinoline, tetrahydroquinazoline, and pyrimidine derivatives and methods of treatment related to the use thereof” (TAISHO PHARMACEUTICAL CO., LTD., priority 2003, published 2005)

Each molecule was assayed on MCH receptors (assay: MCH receptor activity class (method not given)). Details: MCH receptor activity class 1-3 (percent of control at 10^-7 M or IC50).

| Structure (SMILES) | class |
| --- | --- |
| CN(C)c1ccnc(N[C@H]2CC[C@@H](CNC(=O)NCc3ccccc3Cl)CC2)n1 [compound 2421] | 3 (Class 3 The value of percent of control at 10^−7 M was more than 60% or the value of IC50 was more than 200 nM.) |
| Cc1cccc(C(C)C)c1NC(=S)N[C@H]1CC[C@@H](Nc2nccc(N(C)C)n2)CC1 [compound 2348] | 3 (Class 3 The value of percent of control at 10^−7 M was more than 60% or the value of IC50 was more than 200 nM.) |

Same assay, conditions: MCH receptor; class by percent of control at 10^-7 M or IC50

| Structure (SMILES) | class |
| --- | --- |
| CN(C)c1nc(N[C@H]2CC[C@@H](NC(=O)Nc3ccsc3)CC2)nc2c1CCCC2 [compound 1917] | 3 (Class 3 The value of percent of control at 10^−7 M was more than 60% or the value of IC50 was more than 200 nM.) |
| CN(C)c1cc(N[C@H]2CC[C@@H](NC(=O)OCc3ccc([N+](=O)[O-])cc3)CC2)nc2ccccc12 [compound 56] | 3 (Class 3 The value of percent of control at 10^−7 M was more than 60% or the value of IC50 was more than 200 nM.) |
| CN(C)c1cc(N[C@H]2CC[C@@H](NC(=O)C3CCCC3)CC2)nc2ccccc12 [compound 125] | 3 (Class 3 The value of percent of control at 10^−7 M was more than 60% or the value of IC50 was more than 200 nM.) |

Same assay, conditions: activity class per percent of control at 10^-7 M or IC50

| Structure (SMILES) | class |
| --- | --- |
| C[C@H](C(=O)N[C@H]1CC[C@@H](Nc2nc3c(c(N(C)C)n2)CCCC3)CC1)c1cccc(C(=O)c2ccccc2)c1 [compound 1014] | 3 (Class 3 The value of percent of control at 10^−7 M was more than 60% or the value of IC50 was more than 200 nM.) |

Same assay, conditions: class by percent of control at 10^-7 M or IC50

| Structure (SMILES) | class |
| --- | --- |
| Cc1ccc(S(=O)(=O)n2ccc(C(=O)N[C@H]3CC[C@@H](Nc4cc(N(C)C)c5ccccc5n4)CC3)c2)cc1 [compound 762] | 3 (Class 3 The value of percent of control at 10^−7 M was more than 60% or the value of IC50 was more than 200 nM.) |
| COc1cc(C)c(CNC[C@H]2CC[C@@H](Nc3cc(N(C)C)c4ccccc4n3)CC2)cc1C [compound 1195] | 3 (Class 3 The value of percent of control at 10^−7 M was more than 60% or the value of IC50 was more than 200 nM.) |
| COc1c(Br)cc(Br)cc1CNC[C@H]1CC[C@@H](Nc2cc(N(C)C)c3ccccc3n2)CC1 [compound 1171] | 2 (Class 2: The value of percent of control at 10^−7 M was from 40% to 60% or the value of IC′50 was from 50 nM to 200 nM.) |
| CCOc1ccccc1CN[C@H]1CC[C@@H](Nc2nccc(N(C)C)n2)CC1 [compound 1206] | 3 (Class 3 The value of percent of control at 10^−7 M was more than 60% or the value of IC50 was more than 200 nM.) |
| COc1cc(Cl)ccc1CNC[C@H]1CC[C@@H](Nc2nc3c(c(N(C)C)n2)CCCC3)CC1 [compound 1507] | 3 (Class 3 The value of percent of control at 10^−7 M was more than 60% or the value of IC50 was more than 200 nM.) |
| Cc1cccc(C(=O)N[C@H]2CC[C@@H](Nc3cc(N(C)C)c4ccccc4n3)CC2)c1N [compound 783] | 3 (Class 3 The value of percent of control at 10^−7 M was more than 60% or the value of IC50 was more than 200 nM.) |
| Cc1ccc(C(=O)CC(C(=O)N[C@H]2CC[C@@H](Nc3cc(N(C)C)c4ccccc4n3)CC2)c2cn(C)c3ccccc23)cc1 (relative stereo) [compound 722] | 3 (Class 3 The value of percent of control at 10^−7 M was more than 60% or the value of IC50 was more than 200 nM.) |
| COc1cc(CN[C@H]2CC[C@@H](Nc3nccc(N(C)C)n3)CC2)cc(OC)c1OC [compound 1219, N4,N4-dimethyl-N2-{cis-4-[(3,4,5-trimethoxybenzyl)amino]cyclohexcyl}pyrimidine-2,4-diamine] | 3 (Class 3 The value of percent of control at 10^−7 M was more than 60% or the value of IC50 was more than 200 nM.) |
| CN(C)c1cc(N[C@H]2CC[C@@H](NCC(c3ccc(Cl)cc3)c3ccc(Cl)cc3)CC2)nc2ccccc12 [compound 1460] | 3 (Class 3 The value of percent of control at 10^−7 M was more than 60% or the value of IC50 was more than 200 nM.) |
| CN(C)c1nc(N[C@H]2CC[C@@H](NC(=S)Nc3ccc4c(c3)OCCO4)CC2)nc2c1CCCC2 [compound 1784] | 3 (Class 3 The value of percent of control at 10^−7 M was more than 60% or the value of IC50 was more than 200 nM.) |
| CN(C)c1cc(N[C@H]2CC[C@@H](NC(=O)Nc3cccc4ccccc34)CC2)nc2ccccc12 [compound 2130, N-(cis-4-{[4-(dimethylamino)quinolin-2-yl]amino}cyclohexyl)-N′-1-naphthylurea] | 1 (Class 1: The value of percent of control at 10^−7 M was less than 40% or the value of IC50 was less than 50 nM.) |
| CC(C)Oc1ccc(CNC[C@H]2CC[C@@H](Nc3nccc(N(C)C)n3)CC2)cc1 [compound 1277] | 2 (Class 2: The value of percent of control at 10^−7 M was from 40% to 60% or the value of IC′50 was from 50 nM to 200 nM.) |
| CN(C)c1cc(N[C@H]2CC[C@@H](CNCC=C(c3ccccc3)c3ccccc3)CC2)nc2ccccc12 [compound 1158] | 1 (Class 1: The value of percent of control at 10^−7 M was less than 40% or the value of IC50 was less than 50 nM.) |
| CN(C)c1ccnc(N[C@H]2CC[C@@H](NC(=O)c3ccccc3-c3ccccc3)CC2)n1 [compound 894] | 3 (Class 3 The value of percent of control at 10^−7 M was more than 60% or the value of IC50 was more than 200 nM.) |
| CN(C)c1ccnc(N[C@H]2CC[C@@H](CNCc3cc(C(F)(F)F)ccc3F)CC2)n1 [compound 1274] | 3 (Class 3 The value of percent of control at 10^−7 M was more than 60% or the value of IC50 was more than 200 nM.) |
| CN(C)c1ccnc(N[C@H]2CC[C@@H](NC(=O)Cc3cccc4ccccc34)CC2)n1 [compound 307, N-(cis-4-{[4-(dimethylamino)pyrimidin-2-yl]amino}cyclohexyl)-2-(1-naphthyl)acetamide] | 2 (Class 2: The value of percent of control at 10^−7 M was from 40% to 60% or the value of IC′50 was from 50 nM to 200 nM.) |

Same assay, conditions: class by percent of control at 10^−7 M or IC50

| Structure (SMILES) | class |
| --- | --- |
| Cc1cccc(CNC(=O)[C@H]2CC[C@@H](Nc3nc(C)cc(N(C)C)n3)CC2)c1 [compound 2822, cis-4-{[4-(dimethylamino)-6-methylpyrimidin-2-yl]amino}-N-(3-methylbenzyl)cyclohexanecarboxamide] | 1 (Class 1: The value of percent of control at 10^−7 M was less than 40% or the value of IC50 was less than 50 nM.) |
| COc1ccc(C(=O)N[C@H]2CC[C@@H](CNc3nc(C)cc(N(C)C)n3)CC2)cc1 [compound 2735] | 3 (Class 3 The value of percent of control at 10^−7 M was more than 60% or the value of IC50 was more than 200 nM.) |
| Cc1cnc(N[C@H]2CC[C@@H](NC(=O)c3ccc(C(F)(F)F)c(F)c3)CC2)nc1N(C)C [compound 2931] | 3 (Class 3 The value of percent of control at 10^−7 M was more than 60% or the value of IC50 was more than 200 nM.) |
| COc1ccc(C(=O)N[C@H]2CC[C@@H](Nc3ncc(C)c(N(C)C)n3)CC2)cc1C(F)(F)F [compound 2936, N-(cis-4-{[4-(dimethylamino)-5-methylpyrimidin-2-yl]amino}cyclohexyl)-4-methoxy-3-(trifluoromethyl)benzamide] | 1 (Class 1: The value of percent of control at 10^−7 M was less than 40% or the value of IC50 was less than 50 nM.) |
| Cc1cnc(N[C@H]2CC[C@@H](CNC(=O)c3cccnc3Oc3cccc(Cl)c3)C2)nc1N(C)C [compound 3018] | 3 (Class 3 The value of percent of control at 10^−7 M was more than 60% or the value of IC50 was more than 200 nM.) |
